Source: patent publication US9872919B2, “Prodrugs for selective anticancer therapy” (THE RESEARCH FOUNDATION FOR THE STATE UNIVERSITY OF NEW YORK, priority 2012, dated 2018)

Assays:
[1] = tested on: malignant colon cancer cells with high HDAC and CTSL activity; assay: Cell number, trypan blue viability and PI staining, malignant colon cancer cells; type: cell-based, human; settings: 54 μM
Experimental: FIG. 9. The colon cancer cell lines were grown for 5 d either with vehicle control DMSO (gray symbols) or 54 μM BKAc-Puro (red and blue symbols), and cell number was determined at the indicated time points.
FIG. 10. The cell lines were grown as in FIG. 8, cell viability was determined by trypan blue at the indicated time points, and is presented as the percentage of live cells treated with vehicle control (gray symbols) or BKAc-Puro (red and blue symbols).
FIG. 11. The cell lines were grown as in FIG. 8, and dead cells were determined after 80 h by PI signal under fluorescent microscope. BF, bright field. PI, fluorescent PI channel.
FIG. 12. Selective cytotoxicity by BKAc-Puro. The cell lines were grown and analyzed as in FIG. 10. […]
(§1) Cell number was determined by cell counting using improved Neubauer hemacytometer. Cell viability was calculated as the number of viable cells divided by the total number of cells using Trypan Blue Stain (Invitrogen) to distinguish non-viable cells. […] After additional 2-3 h incubation, the absorbance of the formazan at 490 nm was measured by the microplate reader. […] Determination of non-viable cells using PI staining was performed by adding 1 μg/ml of PI solution (Sigma) to the cell culture, prior to the examination under fluorescence microscopy (Axiovert 3, Carl Zeiss) through a×32 objective equipped with a digital imaging processor (Infinity 3, Lumenera).

[2] = tested on: HCT116, HT29, CCD841-CoN and Caco-2 cells; assay: Immunological detection of Puro-labeled proteins in cells; type: cell-based, human
Experimental: (§2) FIG. 27. Levels of Puro-incorporated proteins in the cells were monitored by immunoblotting. Indicated cell lines were treated either with vehicle control DMSO or Boc-KAc-Puro (16.9 μM) in the presence or absence of TSA (0.5 μM) for 20 h, followed by preparation of cell lysates. The lower panel (anti-α-Tubulin) serves as a loading control.
as §2, with “28.” for “27.”, “Puro (2.1” for “Boc-KAc-Puro (16.9”, “16” for “20”, “lysates. […]” for “lysates.”
Cultured cells or tissue samples were sonicated in RIPA lysis buffer (1% NP-40, 0.1% SDS, 50 mM Tris-HCl pH 7.4, 150 mM NaCl, 0.5% sodium deoxycholate, 1 mM EDTA) supplemented with PMSF and protease inhibitor cocktail (Roche) on ice followed by clarification. Protein lysates were separated on sodium dodecyl sulfate-polyacrylamide gels and transferred onto nitrocellulose membranes (Whatman). The primary antibodies used were anti-puromycin (3RH11, KeraFAST) and anti-α-tubulin (Sigma-Aldrich). Proteins of interest were detected with anti-mouse secondary antibody by chemiluminescence (ECL Kit, GE Healthcare Life Sciences).

[3] = tested on: HT29 xenograft tumor, muscle and kidney; assay: Immunological detection of Puro-labeled proteins in tissues of HT29 xenograft mice; type: in vivo; settings: 150 mg/kg/dose daily intraperitoneal for 3 d
Experimental: FIG. 29. In vivo anticancer efficacy of Boc-KAc-Puro. (a) Tumor growth in HCT116 xenograft model. Animals were treated with acidified saline control or Boc-KAc-Puro (50 or 150 mg/kg). Values are mean±s.d. (n=5 mice per group). ***P<0.001 compared to the control group. P=0.000716 (50 mg/kg), P=0.000349 (150 mg/kg) at 10 d. (b) Body weight change during the treatment in a was monitored as a sign of general animal health. Values are mean±s.d. (c) Tumor growth in HT29 xenograft model. Animals were treated with acidified saline control or Boc-KAc-Puro (150 mg/kg). Values are mean±s.d. (n=5 mice per group). ***P<0.001 compared to the control group. P=0.000514 (150 mg/kg) at 10 d. (d) Body weight change during the treatment in c was monitored as a sign of general animal health. Values are mean±s.d. (e) Levels of Puro-incorporated proteins were monitored by immunoblotting. […]
Cultured cells or tissue samples were sonicated in RIPA lysis buffer (1% NP-40, 0.1% SDS, 50 mM Tris-HCl pH 7.4, 150 mM NaCl, 0.5% sodium deoxycholate, 1 mM EDTA) supplemented with PMSF and protease inhibitor cocktail (Roche) on ice followed by clarification. […] Proteins of interest were detected with anti-mouse secondary antibody by chemiluminescence (ECL Kit, GE Healthcare Life Sciences). […]

[4] = tested on: non-malignant Caco-2 cells; assay: MTS cell viability assay, Caco-2; type: cell-based, human
Experimental: FIG. 13. Inhibition of cell viability by BKAc-Puro is presented in dose-response curve format for the same cell lines as in FIG. 8. The cell lines were treated with DMSO or the indicated doses of agent (4.22, 8.44, 16.9, 33.8, 67.5, or 135 μM) for 5 d followed by MTS assay. Data represent mean values of triplicate mesurements±s.d. (n=3). IC50 values were fit by logistic regression.
as §1, with “cells. Data were obtained from duplicated samples with quadruplicate measurements. MTS based cell viability assay was performed using CellTiter 96 Aqueous Cell Proliferation Assay (Promega) according to the manufacturer's instruction.” for “cells.”

Text for HCT116 xenograft tumors: HCT116 cells were implanted subcutaneously into female nude mice. When the developed tumors reached 200 mm^3, animals were intraperitoneally injected by the indicated dose of the compound or vehicle control (DMSO). Tumor volume was estimated by the equation vol=(a×b^2)/2, where vol, a, and b represent volume, the length of the major axis, and the length of the minor axis, respectively. […] (b) Body weight change during the treatment in a. Value is expressed in percent change compared to the day of the first treatment.
HCT116 cells were implanted subcutaneously into female nude mice. When palpable tumors reached 50-150 mm^3, animals were randomized and treated by the indicated dose of the compound or vehicle control (DMSO) via intraperitoneal injection. Tumor incidence is presented as number of mice developed tumor (volume>300 mm^3) after 2 weeks of daily treatment/number of mice treated. Tumor volume was estimated by the equation vol=(a×b^2)/2, where vol, a, and b represent volume, the length of the major axis, and the length of the minor axis, respectively.
The growth inhibitory effects of the compounds on size-matched xenografts are examined by subcutaneous implantation of HCT116 cells into nude mice. HCT116 cells are injected subcutaneously and allowed to develop palpable tumors (50-150 mm^3) before initiation of drug administration. Mice (5-10 animals per group) are treated with the vehicle (DMSO or PBS) or the prodrugs by intraperitoneal administration. […] Tumor volumes are approximated by using the equation vol=(a×b^2)/2, where vol, a, and b represent volume, the length of the major axis, and the length of the minor axis, respectively. Relative tumor volume is calculated by dividing tumor volume by that on day 0 (the day of treatment initiation). The weight of the mice is checked to monitor unfavorable effects by the compounds being tested and upon any indication of distress the mice is humanely euthanized.

`COc1ccc(C[C@H](NC(=O)[C@H](CCCCNC(C)=O)NC(=O)OC(C)(C)C)C(=O)N[C@H]2[C@@H](O)[C@H](n3cnc4c(N(C)C)ncnc43)O[C@@H]2CO)cc1` [BKAc-Puro, N-[3′-(α-Amino-p-methoxyhydrocinnamamido)-3′-deoxy-N,N-dimethyldenosinyl]-N-α-(t-butoxycarbonyl)-N-ε-acetyl-L-lysineamide] was tested, and the “cell proliferation (cell number)” value ([1]; 5 d, all four malignant cells) was “impaired the proliferation”, the “cell death (trypan blue exclusion, morphology, PI staining)” value ([1]; colon cell line panel) was “massive cell death wass detected only in the malignant cells” and the “intensity of Puro incorporation in the presence of TSA” value ([2]; TSA 0.5 μM) was “compromised intensity”. For the same compound, the “intensity of Puro incorporation, malignant vs normal and non-malignant cells” value ([2]; immunoblot, Boc-KAc-Puro 16.9 μM 20 h, Puro 2.1 μM 16 h) was “substantially greater in malignant cancer cells”, the “intensity of Puro incorporation in tissues” value [3] was “substantially greater in tumors compared with normal muscle and kidney” and the “tumor incidence (tumor volume above threshold after 2 weeks of daily treatment)” value (HCT116 xenograft tumors; 200 mg/kg, intraperitoneal) was “no tumors greater than 300 mm^2 were observed”. For the same compound, the tumor growth (HCT116 xenograft tumors; intraperitoneal, tumors 200 mm^3 at start) was “inhibition of tumor growth”, the “toxicity in tumor incidence study” value (HCT116 xenograft tumors; mouse, in vivo) was “no toxicity was observed” and the “highest inactive dose relative to dose of parental Puro effective to these cells” value ([4]; Caco-2, 135 μM BKAc-Puro vs parental Puro) was “more than 30 times”. For the same compound, the IC50 ([4]; MTS, 5 d, sufficient inhibition not achieved with doses up to 135 μM) was over 135 µM.
